Assay: Human HepG2 cell viability assay in 384 well format
Type: toxicity, cell-based
Set-up: dose 125 nL, time 70.5 hour; concentration not given beside the values
Conditions: HepG2 cells, read-out: Inhibition

## Cc1cc(C)n(C2CCCN(C(=O)CCNc3ncccn3)C2)n1 (stereo not given)
  cytotoxicity at 70.5 h: -2.87%

## CCNC(c1ccc(C(C)C)cc1)c1cccnc1 (stereo not given)
  cytotoxicity at 70.5 h: 2.26%

## Cc1ccc(N2CCCC(NCC(=O)Nc3cc(C)nn3C)C2)nn1 (stereo not given)
  cytotoxicity at 70.5 h: -4.79%

## CCNC(c1ccc(Br)cc1)c1cccnc1 (stereo not given)
  cytotoxicity at 70.5 h: 1.53%

## CCNC(c1ccc(C)cc1)c1cccnc1 (stereo not given)
  cytotoxicity at 70.5 h: 0.38%

## Cc1cc(C)n(C2CCCN(C(=O)CCCc3ccccn3)C2)n1 (stereo not given)
  cytotoxicity at 70.5 h: -0.29%

## Cc1noc(CN2CCCC(Cn3nc(C)nc3C)C2)n1 (stereo not given)
  cytotoxicity at 70.5 h: -6.06%

## Cc1ccc(NC2CCN(C(=O)Cc3ccc(C)s3)CC2)nn1
  cytotoxicity at 70.5 h: -7.07%

## CCc1ncc(C(=O)N2CCCC2Cn2cccn2)s1 (stereo not given)
  cytotoxicity at 70.5 h: 12.3%

## CCc1noc(CN2CCCC(Cn3nc(C)nc3C)C2)n1 (stereo not given)
  cytotoxicity at 70.5 h: -12.1%

## Cc1nc(C)n(CC2CCCN(Cc3noc(C)n3)C2)n1 (stereo not given)
  cytotoxicity at 70.5 h: -5.88%

## COc1ncccc1CNCc1c(C)nn(C)c1N(C)C
  cytotoxicity at 70.5 h: 19.7%

## Cc1ccc(O)c(C(=O)N2CCCC(NC(=O)C(C)C)C2)c1 (stereo not given)
  cytotoxicity at 70.5 h: -6.92%

## O=C(NCCc1cccs1)NCC(O)c1cccc(F)c1 (stereo not given)
  cytotoxicity at 70.5 h: -7.4%

## Cc1ccc(-c2n[nH]cc2CNCC2CCN(CC(C)O)CC2)cc1 (stereo not given)
  cytotoxicity at 70.5 h: -1.53%

## COc1ccc(CCNC(=O)NCC(O)c2cccc(F)c2)cc1 (stereo not given)
  cytotoxicity at 70.5 h: 8.74%

## O=C(c1cnc(C2CC2)s1)N1CCCC1Cn1cccn1 (stereo not given)
  cytotoxicity at 70.5 h: -4.89%

## CCOc1cccc2c1OCC(C(=O)NS(=O)(=O)c1c(C)noc1C)=C2
  cytotoxicity at 70.5 h: -2.53%

## Cc1cnn(CC2CCCN2C(=O)c2cnc(-c3ccco3)s2)c1 (stereo not given)
  cytotoxicity at 70.5 h: -9.06%

## CCN(c1cc(C)cc(C)c1)S(=O)(=O)c1cc(C(=O)O)cs1
  cytotoxicity at 70.5 h: -7.47%

## Cc1cnn(C2CCCN(C(=O)c3cn4ccccc4n3)C2)c1 (stereo not given)
  cytotoxicity at 70.5 h: 17.4%

## COC(=O)c1cccc(C(=O)NCc2ccc3c(c2)CCCN3C)c1
  cytotoxicity at 70.5 h: -3.61%

## Cc1ccc(N(C)S(=O)(=O)c2cc(C(=O)O)cs2)c(C)c1
  cytotoxicity at 70.5 h: 0.683%

## CCn1cnnc1CNC(=O)N(C)Cc1cccc(OC(F)F)c1
  cytotoxicity at 70.5 h: -0.632%

## CC(C)c1cnc(CN(C)C2CCN(CCn3cc(C#N)cn3)C2)o1 (stereo not given)
  cytotoxicity at 70.5 h: -2.83%

## Cc1nccn1CCCC(=O)N1CCCN(c2cccnn2)CC1
  cytotoxicity at 70.5 h: -2.35%

## CN(C)c1ncccc1C(=O)N1CCCC1Cn1cccn1 (stereo not given)
  cytotoxicity at 70.5 h: -5.68%

## O=C(c1cnn(-c2ccccc2Cl)c1)N1CCN(CCO)CC1
  cytotoxicity at 70.5 h: -5.36%

## Cc1nn(C)c(Cl)c1C1CCCN1C(=O)c1ccnn1C (stereo not given)
  cytotoxicity at 70.5 h: -14.4%

## COc1ccc(CNC(=O)NCCc2csc(C)n2)cn1
  cytotoxicity at 70.5 h: 10.9%

## CN(CCc1ccccc1)Cc1nc2c(cnn2C)c(=O)[nH]1
  cytotoxicity at 70.5 h: -10.9%

## Cc1ncc(C(=O)N2CCCC(n3cccn3)C2)s1 (stereo not given)
  cytotoxicity at 70.5 h: -11.8%

## O=C(c1cnc(-c2ncccn2)s1)N1CCCC(n2cccn2)C1 (stereo not given)
  cytotoxicity at 70.5 h: -10.1%

## Cc1nc(C)n(CC2CCCN2c2ncnc3ccsc23)n1 (stereo not given)
  cytotoxicity at 70.5 h: -5.53%

## Cc1cnn(CC2CCCN2C(=O)c2ccccc2-n2cccn2)c1 (stereo not given)
  cytotoxicity at 70.5 h: -12.6%

## COc1c(C2CCCN2C(=O)c2nccnc2N)c(C)nn1C (stereo not given)
  cytotoxicity at 70.5 h: -13%

## Cc1ncncc1C(=O)N1CCCC1c1c(C)nn(C)c1Cl (stereo not given)
  cytotoxicity at 70.5 h: -10.6%

## Cc1nn(C)c(Cl)c1C1CCCN1C(=O)c1cnccn1 (stereo not given)
  cytotoxicity at 70.5 h: -7.92%

## O=C(CCCc1ccccn1)N1CCCC1c1noc(C2CC2)n1 (stereo not given)
  cytotoxicity at 70.5 h: -9.72%

## CCn1cnnc1CNC(=O)NC(C)C(C)C (stereo not given)
  cytotoxicity at 70.5 h: -17.7%

## Cn1cnnc1C1CCN(C(=O)CCCOc2ccccc2F)CC1
  cytotoxicity at 70.5 h: -12.8%

## Cc1cccc(-c2nc(CN3CCc4c(ncn4C)C3)no2)c1
  cytotoxicity at 70.5 h: 20.5%

## Cc1cc(C)n(CC2CCCN2CC(=O)NC2CCOCC2)n1 (stereo not given)
  cytotoxicity at 70.5 h: -15.9%

## COc1ccc2cc(C(=O)N3CCCCC3Cn3cccn3)[nH]c2c1 (stereo not given)
  cytotoxicity at 70.5 h: -3.69%

## Cc1cc(C)n(C2CN(CC(O)c3ccc4c(c3)OCO4)C2)n1 (stereo not given)
  cytotoxicity at 70.5 h: -2.16%

## CC(O)CN1CCN(C(=O)c2ccc(N(C)C)nn2)CC1 (stereo not given)
  cytotoxicity at 70.5 h: -4.33%

## CC(C)c1nnc2n1CCN(CCCS(=O)(=O)c1ccccc1)C2
  cytotoxicity at 70.5 h: -13.8%

## Cn1c(C2CC2)nc2c1CCN(CC(=O)Nc1nncs1)C2
  cytotoxicity at 70.5 h: -18.2%

## CN(C)c1ccc(C(=O)N2CCN(C(=O)N3CCCCC3)CC2)nn1
  cytotoxicity at 70.5 h: -18.5%

## Cc1ncc2c(n1)CCN(Cc1nc3ccccc3o1)C2
  cytotoxicity at 70.5 h: 0.854%

## O=C(NCc1cc[nH]n1)NCC(O)COc1cccc(F)c1 (stereo not given)
  cytotoxicity at 70.5 h: 22.7%

## Cc1nc(CNC(=O)NCC(O)c2ccc(F)cc2F)cs1 (stereo not given)
  cytotoxicity at 70.5 h: -12%

## Cc1noc(C)c1CC(=O)OCC(=O)N1CCc2sccc2C1
  cytotoxicity at 70.5 h: 7.95%

## O=C(CCN1CCCN(c2nccs2)CC1)Nc1ccccc1
  cytotoxicity at 70.5 h: 28.8%

## CN(CCNC(=O)c1scnc1Cl)c1ccccc1
  cytotoxicity at 70.5 h: 2.36%

## Cc1csc(N2CCCN(C(=O)c3c(C)oc(C)c3C)CC2)n1
  cytotoxicity at 70.5 h: -1.91%

## Cc1ccc(CNC(=O)N2CCN(Cc3ccsc3)CC2)n1C
  cytotoxicity at 70.5 h: 30.9%

## CCc1[nH]ncc1C(=O)N1CCCC(n2cccn2)C1 (stereo not given)
  cytotoxicity at 70.5 h: 3.94%

## Cc1ccc(N2CCCN(C(=O)c3c(C)oc(C)c3C)CC2)nn1
  cytotoxicity at 70.5 h: -4.32%

## NC(=O)CN1CCCN(C(=O)Cc2ccc3ccccc3c2)CC1
  cytotoxicity at 70.5 h: 33.3%

## Cc1ccc(NC2CCN(C(=O)c3n[nH]c4ccccc34)CC2)nn1
  cytotoxicity at 70.5 h: 1.27%

## Cc1ccc(NC2CCN(C(=O)c3cnc(C)s3)CC2)nn1
  cytotoxicity at 70.5 h: -6.52%

## c1ccc2cc(OCCN3CCn4c(nnc4C4CC4)C3)ccc2c1
  cytotoxicity at 70.5 h: 31%

## O=C(CCN1CCCN(c2nccs2)CC1)NCC1CCCCC1
  cytotoxicity at 70.5 h: -8.1%

## Cc1ccc(-c2nc(CN3CCn4c(nnc4C4CC4)C3)co2)cc1
  cytotoxicity at 70.5 h: -5.93%

## Cc1ccc(C(=O)N2CCN(Cc3ccsc3)CC2)n1C
  cytotoxicity at 70.5 h: -7.84%

## Cc1cnc(CN(C)C2CCN(CCc3cnn(C)c3)C2)o1 (stereo not given)
  cytotoxicity at 70.5 h: -0.678%

## Cc1csc(N2CCCN(C(=O)c3cnns3)CC2)n1
  cytotoxicity at 70.5 h: 31.6%

## CCCn1[nH]cc/c1=N\C(=O)CN1CCc2cnc(CC)nc2C1
  cytotoxicity at 70.5 h: 2.85%

## CC1CCN(C(=O)c2cccc3ncccc23)CC1
  cytotoxicity at 70.5 h: 4.77%

## Cc1nc(C2CCCN2Cc2ncc(C(C)C)o2)no1 (stereo not given)
  cytotoxicity at 70.5 h: 42.3%

## N#Cc1ccccc1OCCN1CCn2c(nnc2C2CC2)C1
  cytotoxicity at 70.5 h: 5.39%

## CCn1ccnc1CN1CCC(N(C)Cc2ncc(C)o2)C1 (stereo not given)
  cytotoxicity at 70.5 h: 20.1%

## Cc1cnn(CC2CCCCN2CCn2cncn2)c1 (stereo not given)
  cytotoxicity at 70.5 h: 1.52%

## O=C(Cn1cccnc1=O)NCCc1ccc2c(c1)OCCO2
  cytotoxicity at 70.5 h: 5.28%

## NC(=O)CC1CCN(C(=O)NCc2ccccc2-n2cccn2)CC1
  cytotoxicity at 70.5 h: -1.19%

## OC(COc1ccccc1)CN1CCc2c(ncn2C2CC2)C1 (stereo not given)
  cytotoxicity at 70.5 h: -6.53%

## Cc1nc(CN2CCN(Cc3nccn3C)CC2)no1
  cytotoxicity at 70.5 h: 3.86%

## CCC(=O)N(C)CC(=O)Nc1ccc(Br)cn1
  cytotoxicity at 70.5 h: 2.06%

## Cc1cnn(CC2CN(CC(=O)N(C)Cc3cccs3)CCO2)c1 (stereo not given)
  cytotoxicity at 70.5 h: -1.56%

## Cc1cc(C)n(CC2CCCCN2C(=O)c2ccc3nncn3c2)n1 (stereo not given)
  cytotoxicity at 70.5 h: -2.04%

## CCc1nc(C2CCCN2C(=O)c2c[nH]c(C)n2)no1 (stereo not given)
  cytotoxicity at 70.5 h: 27.8%

## CCc1nc(C2CCCN2C(=O)c2cc(C3CC3)[nH]n2)no1 (stereo not given)
  cytotoxicity at 70.5 h: -1.42%

## O=C(NCc1ccccc1-n1cccn1)N1CCN2CCCCC2C1 (stereo not given)
  cytotoxicity at 70.5 h: 1.19%

## Cc1nn(C)c(N(C)C)c1CNCc1ccc(OCC(N)=O)cc1
  cytotoxicity at 70.5 h: 0.111%

Reference: ChEMBL document CHEMBL3507680, “University of Dundee, Gates Library screen for HepG2 cell viability”
